{
  "source": "patent EP0036650A2",
  "about": "“Cephalosporin derivatives, process for their preparation, corresponding compositions, their use in the treatment of diseases and intermediates” (F. HOFFMANN-LA ROCHE & CO. Aktiengesellschaft, priority 1980, dated 1981)",
  "key": {"Serratia marcescens": {"test_system": "Serratia marcescens", "test": "Minimum inhibitory concentration in vitro", "type": "cell-based", "details": "ß-Lactamase bildende Stämme", "source_text": "(§1) Zum Nachweis der antimikrobiellen Wirksamkeit der erwähnten Produkte wurde das (6R,7R)-7-[2-(2-Amino-5-thiazolyl)-2-[(Z)-methoxyimino]acetamido]-3-[[(2,5-dihydro-2-methyl-5-oxo-as-triazin-3-yl)thio]methyl]-8-oxo-5-thia-1-azabicyclo[4.2.0]oct-2-en-2-carbonsäure-Natriumsalz auf seine Aktivität in vitro gegen verschiedene Krankheitserreger getestet. Nachstehend sind die entsprechenden Mindesthemmkonzentrationen (MIC; µg/ml) zusammengestellt: […]"}, "Enterobacter cloacae": {"test_system": "Enterobacter cloacae", "test": "Minimum inhibitory concentration in vitro", "type": "cell-based", "details": "ß-Lactamase bildende Stämme", "source_text": "as §1"}, "Proteus vulgaris": {"test_system": "Proteus vulgaris", "test": "Minimum inhibitory concentration in vitro", "type": "cell-based", "details": "ß-Lactamase bildende Stämme", "source_text": "as §1"}, "Haemophilus influenzae": {"test_system": "Haemophilus influenzae", "test": "Minimum inhibitory concentration in vitro", "type": "cell-based", "source_text": "as §1"}, "[1]": {"test_system": "Pseudomonas aeruginosa Stamm 2", "test": "Minimum inhibitory concentration in vitro", "type": "cell-based", "details": "STAMM2, ß-Lactamase bildende Stämme", "source_text": "as §1"}, "Neisseria gonorrhoeae": {"test_system": "Neisseria gonorrhoeae", "test": "Minimum inhibitory concentration in vitro", "type": "cell-based", "source_text": "as §1"}, "Escherichia coli": {"test_system": "Escherichia coli", "test": "Minimum inhibitory concentration in vitro", "type": "cell-based", "details": "ß-Lactamase bildende Stämme", "source_text": "as §1"}, "Staphylococcus aureus": {"test_system": "Staphylococcus aureus", "test": "Minimum inhibitory concentration in vitro", "type": "cell-based", "source_text": "as §1"}, "[2]": {"test_system": "Pseudomonas aeruginosa Stamm 1", "test": "Minimum inhibitory concentration in vitro", "type": "cell-based", "details": "STAMM1, ß-Lactamase bildende Stämme", "source_text": "as §1"}, "Proteus mirabilis": {"test_system": "Proteus mirabilis", "test": "Minimum inhibitory concentration in vitro", "type": "cell-based", "details": "ß-Lactamase bildende Stämme", "source_text": "as §1"}, "Toxicity (lethal dose)": {"test": "Toxicity (lethal dose)", "type": "in vivo"}},
  "data": [
    {"smiles": "CO/N=C(\\C(=O)N[C@@H]1C(=O)N2C(C(=O)O)=C(CSc3nc(=O)cnn3C)CS[C@H]12)c1csc(N)n1", "note": "[(6R,7R)-7-[2-(2-Amino-4-thiazolyl)-2-[(Z)-methoxyimino]ace-tamido]-3-[[(2,5-dihydro-2-methyl-5-oxo-as-triazin-3-yl)thio]methyl]-8-oxo-5-thia-1-azabicyclo[4.2.0]oct-2-en-2-carbonsäure-Natriumsalz]", "values": [
      {"measurement": "MIC", "setting": "Serratia marcescens", "result": 0.16, "unit": "µg/mL"},
      {"measurement": "MIC", "setting": "Enterobacter cloacae", "result": 2.5, "unit": "µg/mL"},
      {"measurement": "MIC", "setting": "Proteus vulgaris", "result": 0.02, "unit": "µg/mL"},
      {"measurement": "MIC", "setting": "Haemophilus influenzae", "result": 0.02, "unit": "µg/mL"},
      {"measurement": "MIC", "setting": "[1]", "result": 40, "unit": "µg/mL"},
      {"measurement": "MIC", "setting": "Neisseria gonorrhoeae", "result": 0.02, "unit": "µg/mL"},
      {"measurement": "MIC", "setting": "Escherichia coli", "result": 0.04, "unit": "µg/mL"},
      {"measurement": "MIC", "setting": "Staphylococcus aureus", "result": 2.5, "unit": "µg/mL"},
      {"measurement": "MIC", "setting": "[2]", "result": 40, "unit": "µg/mL"},
      {"measurement": "MIC", "setting": "Proteus mirabilis", "result": 0.04, "unit": "µg/mL"},
      {"measurement": "LD100", "setting": "Toxicity (lethal dose); i.v.", "result": 1000, "unit": "mg/kg"},
      {"measurement": "LD100", "setting": "Toxicity (lethal dose); p.o.", "result": ">5000", "unit": "mg/kg"},
      {"measurement": "LD100", "setting": "Toxicity (lethal dose); s.c.", "result": ">5000", "unit": "mg/kg"}
    ]}
  ]
}
